Patent US20200009197A1, “COMPOSITIONS AND METHODS FOR THE REPROGRAMMING OF CELLS INTO CARDIOMYOCYTES” (Duke University, priority 2014, published 2020)

Assays:
[1] = cited from earlier work
[2] = test system: neonatal cardiac fibroblasts; test: qPCR of cardiac and pluripotency gene expression in neonatal cardiac fibroblasts (with or without miR combo transfection); assay type: cell-based, Mouse (C57BL/6)
Protocol: Mouse (C57BL/6) neonatal cardiac fibroblasts or tail tip fibroblasts were isolated from 2 day old mouse neonates according to known methods e.g., outlined in Jayawardena et al [Jayawardena T, Mirotsou M, Dzau V J. Direct reprogramming of cardiac fibroblasts to cardiomyocytes using microRNAs. Methods in molecular biology. 2014; 1150:263-272]. Cells were cultured in growth media containing DMEM (ATCC) supplemented with 15% v/v FBS and 1% v/v penicillin/streptomycin. Cells were used at passage 1 or passage 2.
Cells were seeded at 5000 cells/cm^2 in growth media. Twenty-four hours later growth media was replaced with chemically defined reprogramming media (Advanced DMEM/F12, 0.2% w/v BSA, 250 μM Ascorbic Acid, 1× Insulin-Transferrin-Selenium, 1× L-Glutamine, 1× Penicillin-Streptomycin). Fresh media was added every two days.
Fibroblasts were seeded into a 24 well-plate at 9,000 cells/well. […]
The GM comprises the following: DMEM (ATCC#30-2002), 15% v/v embryonic stem cell qualified fetal bovine serum, and 1× penicillin/streptomycin. […] Differentiation was assessed by qPCR, immunocytochemistry, and flow cytometry.

[3] = during controlled therapy; cited from earlier work

## Cc1cccc(-c2nn(C(=S)Nc3ccccc3)cc2-c2ccnc3ccccc23)n1 [A83-01, 3-(6-Methyl-2-pyridinyl)-N-phenyl-4-(4-quinolinyl)-1H-pyrazole-1-c arbothioamide]
[1]; DMSO
  soluble to, in DMSO: 100 mM

## COC(=O)C1=C(C)NC(C)=C([N+](=O)[O-])[C@@H]1c1ccccc1C(F)(F)F [R(+)Bay K 8644, R-(+)-1,4-Dihydro-2,6-dimethyl-5-nitro-4-[2-(trifluoromethyl)phenyl]-3-pyridinecarboxylic acid methyl ester]
[1]; DMSO
  soluble to, in DMSO: 100 mM
[1]
  soluble to, in ethanol: 100 mM

## O=C1O[C@H]([C@@H](O)CO)C(O)=C1O [ascorbic acid]
[2]; added to growth media
  effects of miR-combo upon cardiac gene expression: augmented
[2]; increasing concentration
  additive effect on cardiac gene expression at gene and protein level: increased the additive effect

## O=C(O)C(Cc1c[nH]c2ccccc12)N1C(=O)c2ccccc2C1=O (stereo not drawn) [RG108, 2-(1,3-Dioxo-1,3-dihydro-2H-isoindol-2-yl)-3-(1H-indol-3-yl)propionic acid]
[1]; DMSO
  soluble to, in DMSO: 100 mM
[1]
  soluble to, in ethanol: 100 mM

## CCCC(CCC)C(=O)O [Valproic acid, 2-propylpentanoic acid]
[3]
  serum or plasma concentrations: 20 to 100 mg/L

## O=C(O)C=C(CCc1ccc(Cl)cc1)c1ccccc1 [PS48, 5-(4-Chloro-phenyl)-3-phenyl-pent-2-enoic acid]
[1]; DMSO
  solubility in DMSO: soluble in DMSO
